Results published in US20160166487A1, “TOPICAL COMPOSITIONS FOR TREATMENT OF EXCESSIVE SWEATING AND METHODS OF USE THEREOF” (GLAXOSMITHKLINE INTELLECTUAL PROPERTY DEVELOPMENT LIMITED, priority 2013, published 2016).

Columns and labels:
[1] = MALDI imaging of distribution in skin layers; format: in vitro ADME, human; settings: twenty-four hours after single finite topical dose
Source text: Matrix-assisted laser desorption/ionization (MALDI) has emerged as a powerful and diverse technology for analyzing the spatial distribution of endogenous and exogenous compounds directly from a tissue section. [See Seeley E H, Caprioli R M. MALDI imaging mass spectrometry of human tissue: method challenges and clinical perspectives. Trends Biotechnol. 29(3), 136-143 (2011); and Svatos A. Mass spectrometric imaging of small molecules. Trends Biotechnol. 28(8), 425-434 (2010)]. […] Anal Bioanal Chem. (2013); 405(4):1159-70]. MALDI imaging in human skin tissue sections: focus on various matrices and enzymes.

[2] = Population pharmacokinetic model of IV and occluded axilla plasma data; format: in vivo, human
Source text: Of the drug that was available systemically, 9.70% (66.7%) was absorbed through a zero order process.

[3] = Irritation potential of topical solution; settings: solution comprising 2.2% w/w umeclidinium bromide
[4] = Clinical study, single topical [14C] umeclidinium dose to axilla or palm of healthy male subjects; format: in vivo, human
Description: Up to four cohorts were to be enrolled (Cohort A: unoccluded axilla; Cohort B: occluded axilla; Cohort C: unoccluded palm; Cohort D: occluded palm). Six subjects were to be dosed in each cohort and complete the study procedures.
On the day of dosing, subjects will receive the study drug applied to the axilla or palm. Each subject will only receive a single dose of study drug which will be applied to the test site and remain on the application site for 8 hours. Serial blood samples will be collected throughout treatment. An interim analysis using simulations will be conducted after each cohort to determine the likelihood of exceeding the safety cover for Cmax or AUC and the likelihood of obtaining quantifiable concentrations sufficient to determine the half-life in the subsequent cohorts.

[5] = 0.5 mg (500 mcg) inhaled once daily for 10 days, thorough QT study; cited from earlier work

estimated absolute plasma bioavailability, mean (RSE %) ([2]; administration to occluded axilla, RSE 55.3%): 0.19% | share of systemically available drug absorbed through a zero order process, mean (RSE %) ([2]; occluded axilla, RSE 66.7%): 9.70% | percent dose recovered from the skin surface, mean ([4]; Cohort A, unoccluded axilla, end of 8 hour application, range 77.7-84.1%): 80.6% | median time to maximum plasma concentration ([4]; Cohort A, unoccluded axilla, range: 12 h-30 h): 13 h | percent dose recovered from the skin surface, mean ([4]; Cohort B, occluded axilla, range 69.2%-81.7%): 75.4% | median time to maximum concentration ([4]; Cohort B, occluded axilla, range: 2 h-24 h): 13 h | plasma concentrations ([4]; Cohort D, occluded palm): no quantifiable plasma concentrations | percent dose recovered from the skin surface, mean ([4]; Cohort D, occluded palm, range 45.6%-59.9%): 52.5%
SMILES: OC(c1ccccc1)(c1ccccc1)C12CC[N+](CCOCc3ccccc3)(CC1)CC2 [umeclidinium, 4-[hydroxy(diphenyl)methyl]-1-{2-[(phenylmethyl)oxy]ethyl}-1-azoniabicyclo[2.2.2]octane]
qualitative distribution in the skin layers [1]: penetrated to the deeper sections of the dermis and accumulated in the area where the sweat glands are present | irritation potential [3]: low irritation potential | tolerability [5]: well tolerated
